Assays:
[1] = test system: NK cells; test: Test 3 NK cell cytotoxicity of spleen cells against calcein-stained YAC-1 target cells; type: cell-based, mouse; details: test substance 1 μg/mL, 18 hours, then YAC-1 target cells 4 hours, control set to 1
Method: After dissection of a C57BL/6J mouse (8 weeks old), spleen cells were isolated, and a cell suspension prepared by dilution in a 10% fetal bovine serum-RPMI 1640 medium was seeded at 100 µL/well so that the cells were seeded at 5×10^6 cells/well in a 96-well plate. To the seeded cells, a medium (0.5% DMSO-10% fetal bovine serum-RPMI 1640 medium) prepared to have a total concentration of test substances of 1 μg/mL (for young barley leaf juice powder, the concentration of young barley leaf juice ingredient excluding dextrin was 1 μg/mL) was added at 100 μL/well, and the resultant was cultured for 18 hours in a 5% CO2 incubator (“CO2 Incubator” manufactured by ASTEC) at 37° C.
After culture, the plate was centrifuged (at 1,000 rpm for 10 minutes) using a centrifuge. 150 μL of the supernatant was removed, and 150 μL of 1% BSA-RPMI 1640 was added. This process was repeated once more. After that, YAC-1 cells (stained with calcein) sensitive to NK cells were added as target cells, and the resultant was cultured for 4 hours.
After culture, the plate was centrifuged (at 1,000 rpm for 10 minutes) using a centrifuge, and the supernatant was collected in a 96-well black plate. The collected supernatant was measured for fluorescence intensity (at an excitation wavelength of 490 nm and a fluorescence wavelength of 515 nm) using a microplate reader (“SpectraMax i3x” manufactured by Molecular Devices), and the NK cell cytotoxicity was evaluated.
The NK cell cytotoxicity (relative value) is shown in Table 5 with the value of the control set to 1. A higher relative value of NK cell cytotoxicity indicates greater activation of NK cells. […] Even if dietary fiber (cellulose), Vitamin D, or Spirulina, which are known to have immune-stimulating effects, was added, the NK cells were not activated.

[2] = test system: bone marrow-derived dendritic cells (including both cDCs and pDCs); test: Test 1 (A) TNF-α gene expression in bone marrow-derived dendritic cells (real-time PCR); type: cell-based, mouse; details: test substance 10 μg/mL, 72 hours; TNF-α/β-actin, control with no test substance set to 1
Method: After dissection of a C57BL/6J mouse (8 weeks old), bone marrow mononuclear cells were sampled from the femur and tibia, and cultured using a differentiation induction medium (RPMI 1640 medium containing 10% fetal bovine serum, 100 μM of 2-mercaptoethanol, and 100 ng/ml of Flt3 ligand). […] After the medium was removed from each well, 100 μL of a differentiation induction medium containing 0.5% DMSO, which was prepared so that a total concentration of the test substances was 10 μg/mL (for young barley leaf juice powder, the concentration of young barley leaf juice ingredient excluding dextrin was 10 μg/mL), was added to each well and cultured for 72 hours. After that, the medium was removed from each well, and RNA was collected using the RNeasy Mini Kit (manufactured by QIAGEN). From the obtained RNA, a gene expression level (mRNA expression level) of TNF-α was measured by the real-time PCR method using the One Step TB Green® PrimeScript™ RT-PCR Kit II <Perfect Real Time> (manufactured by TaKaRa). For a primer, Mm_Il12B_1_SG QuantiTect Primer Assay and Mm_Tnf1_SG QuantiTect Primer Assay (manufactured by QIAGEN) were used.

Compound | NK cell cytotoxicity (relative value) [1] | NK cell cytotoxicity (relative value) ([1]; listed as Comparative Example 5) | NK cell cytotoxicity (relative value) ([1]; listed as Comparative Example 4) | TNF-α gene expression level (relative value) [2]
C=C1CC[C@H](O)C/C1=C/C=C1\CCC[C@]2(C)[C@@H]([C@H](C)CCCC(C)C)CC[C@@H]12 [compound 2, Vitamin D3] | not activated | 0.93 |  | 
Cellulose [compound 1] | not activated |  | 1.05 | 
β-glucan [compound 3] | 1.04 |  |  | 1.17

Reference: patent publication US20250127840A1, “METHOD FOR ACTIVATING DENDRITIC CELLS AND METHOD FOR ACTIVATING NATURAL KILLER CELLS, HELPER T CELLS, KILLER T CELLS, B CELLS, OR MACROPHAGES” (TOYO SHINYAKU CO., LTD., priority 2023, published 2025)
